One block for each compound: values may come before it.
Tests used:
[1] = tested on: Plasma; experiment: Drug level in Fischer 344 rat plasma treated with 2-Methylalanyl-N-{1-[(1R)-1-(4-fluorophenyl)-1-methyl-2-oxo-2-pyrrolidin-1-ylethyl]-1H-imidazol-4-yl}-5-phenyl-D-norvalinamide at 3 mg/kg, iv by LC-MS/MS analysis; format: ADME, organism-based; parameters: dose 3 mg/kg, route intravenous; settings: in vivo
[2] = Drug level in Fischer 344 rat urine treated with 2-Methylalanyl-N-{1-[(1R)-1-(4-fluorophenyl)-1-methyl-2-oxo-2-pyrrolidin-1-ylethyl]-1H-imidazol-4-yl}-5-phenyl-D-norvalinamide at 3 mg/kg, iv and 30 mg/kg, po by LC-MS analysis; format: ADME, organism-based; settings: in vivo
[3] = Drug level in beagle dog urine treated with 2-Methylalanyl-N-{1-[(1R)-1-(4-fluorophenyl)-1-methyl-2-oxo-2-pyrrolidin-1-ylethyl]-1H-imidazol-4-yl}-5-phenyl-D-norvalinamide at 20 mg/kg, po by LC-MS analysis; format: ADME, organism-based, Canis lupus familiaris; parameters: dose 20 mg/kg, route oral; settings: in vivo
[4] = tested on: Plasma; experiment: Drug level in beagle dog plasma treated with 2-Methylalanyl-N-{1-[(1R)-1-(4-fluorophenyl)-1-methyl-2-oxo-2-pyrrolidin-1-ylethyl]-1H-imidazol-4-yl}-5-phenyl-D-norvalinamide at 1 mg/kg, iv by LC-MS/MS analysis; format: ADME, organism-based, Canis lupus familiaris; parameters: dose 1 mg/kg, route intravenous; settings: in vivo
[5] = Terminal half life in Fischer 344 rat at 3 mg/kg, iv; format: ADME, organism-based; parameters: dose 3 mg/kg, route intravenous; settings: in vivo, read-out: beta t1/2 (converted)
[6] = Plasma clearance in Fischer 344 rat at 3 mg/kg, iv; format: ADME, organism-based; parameters: dose 3 mg/kg, route intravenous
[7] = Drug excretion in Fischer 344 rat urine assessed as (2R,2'R)-2,2'-(diimidazo[4,5-b:4',5'-e]pyridine-1,7-diyl)bis(2-(4-fluorophenyl)-1-(pyrrolidin-1-yl)propan-1-one) formation at 3 mg/kg, iv and 30 mg/kg, po by LC-UV spectrophotometry; format: ADME, organism-based; settings: in vivo
[8] = Oral bioavailability in Fischer 344 rat at 30 mg/kg; format: ADME, organism-based; settings: in vivo
[9] = Plasma clearance in beagle dog at 1 mg/kg, iv; format: ADME, organism-based, Canis lupus familiaris; parameters: dose 1 mg/kg, route intravenous
[10] = Terminal half life in beagle dog at 1 mg/kg, iv; format: ADME, organism-based, Canis lupus familiaris; parameters: dose 1 mg/kg, route intravenous; settings: in vivo, read-out: beta t1/2 (converted)
[11] = Oral bioavailability in beagle dog at 3 mg/kg; format: ADME, organism-based, Canis lupus familiaris; settings: in vivo
[12] = Drug excretion in Fischer 344 rat urine assessed as (2R,2'R)-2,2'-(diimidazo[4,5-b:4',5'-e]pyridine-1,7-diyl)bis(2-(4-fluorophenyl)-1-(pyrrolidin-1-yl)propan-1-one) formation at 3 mg/kg, iv and 30 mg/kg, po by LC-MS analysis; format: ADME, organism-based; settings: in vivo
[13] = Drug excretion in beagle dog urine assessed as (2R,2'R)-2,2'-(diimidazo[4,5-b:4',5'-e]pyridine-1,7-diyl)bis(2-(4-fluorophenyl)-1-(pyrrolidin-1-yl)propan-1-one) formation at 20 mg/kg, po by LC-MS analysis; format: ADME, organism-based, Canis lupus familiaris; parameters: dose 20 mg/kg, route oral; settings: in vivo
[14] = Drug metabolism in human hepatocytes assessed as (2R,2'R)-2,2'-(diimidazo[4,5-b:4',5'-e]pyridine-1,7-diyl)bis(2-(4-fluorophenyl)-1-(pyrrolidin-1-yl)propan-1-one) formation at 50 uM after 4 hrs; format: ADME, cell-based, Hepatocyte
[15] = tested on: Liver; experiment: Drug metabolism in rat liver slices assessed as (2R,2'R)-2,2'-(diimidazo[4,5-b:4',5'-e]pyridine-1,7-diyl)bis(2-(4-fluorophenyl)-1-(pyrrolidin-1-yl)propan-1-one) formation at 50 uM after 24 hrs; format: ADME, tissue-based
[16] = tested on: Liver; experiment: Drug metabolism in dog liver slices assessed as (2R,2'R)-2,2'-(diimidazo[4,5-b:4',5'-e]pyridine-1,7-diyl)bis(2-(4-fluorophenyl)-1-(pyrrolidin-1-yl)propan-1-one) formation at 50 uM after 24 hrs; format: ADME, tissue-based, Canis lupus familiaris
[17] = tested on: Plasma; experiment: Drug metabolism in Fischer 344 rat plasma assessed as (R)-2-(4-amino-1H-imidazol-1-yl)-2-(4-fluorophenyl)-1-(pyrrolidin-1-yl)propan-1-one formation at 3 mg/kg, iv by LC-MS analysis; format: ADME, organism-based; parameters: dose 3 mg/kg, route intravenous; settings: in vivo
[18] = tested on: Plasma; experiment: Drug metabolism in beagle dog plasma assessed as (R)-2-(4-amino-1H-imidazol-1-yl)-2-(4-fluorophenyl)-1-(pyrrolidin-1-yl)propan-1-one formation at 1 mg/kg, iv by LC-MS analysis; format: ADME, organism-based, Canis lupus familiaris; parameters: dose 1 mg/kg, route intravenous; settings: in vivo
[19] = Drug excretion in Fischer 344 rat urine assessed as (R)-2-(4-amino-1H-imidazol-1-yl)-2-(4-fluorophenyl)-1-(pyrrolidin-1-yl)propan-1-one formation at 3 mg/kg, iv and 30 mg/kg, po by LC-MS analysis; format: ADME, organism-based; settings: in vivo
[20] = Drug excretion in beagle dog urine assessed as (R)-2-(4-amino-1H-imidazol-1-yl)-2-(4-fluorophenyl)-1-(pyrrolidin-1-yl)propan-1-one formation at 20 mg/kg, po by LC-MS analysis; format: ADME, organism-based, Canis lupus familiaris; parameters: dose 20 mg/kg, route oral; settings: in vivo
[21] = tested on: Plasma; experiment: Drug metabolism in Fischer 344 rat plasma assessed as (R)-2-(2-amino-2-methylpropanamido)-5-phenylpentanoic acid formation at 3 mg/kg, iv by LC-MS analysis; format: ADME, organism-based; parameters: dose 3 mg/kg, route intravenous; settings: in vivo
[22] = Drug level in Fischer 344 rat urine treated with 2-Methylalanyl-N-{1-[(1R)-1-(4-fluorophenyl)-1-methyl-2-oxo-2-pyrrolidin-1-ylethyl]-1H-imidazol-4-yl}-5-phenyl-D-norvalinamide at 3 mg/kg, iv and 30 mg/kg, po by LC-UV spectrophotometry; format: ADME, organism-based; settings: in vivo

- Drug metabolism [1]: metabolite_detected
Compound: CC(C)(N)C(=O)N[C@H](CCCc1ccccc1)C(=O)O

- Drug metabolism [1]: metabolite_detected
- Drug excretion [2]: metabolite_detected
- Drug excretion [3]: metabolite_detected
- Drug metabolism [4]: metabolite_detected
Compound: C[C@](C(=O)N1CCCC1)(c1ccc(F)cc1)n1cnc(N)c1

- half-life [5]: 120 min
- clearance [6]: 75 mL/min/kg
- Drug excretion [7]: metabolite_detected
- bioavailability [8]: 74%
- clearance [9]: 33 mL/min/kg
- half-life [10]: 300 min
- bioavailability [11]: 33%
- Drug excretion [12]: metabolite_detected
- Drug excretion [13]: metabolite_detected
- Drug metabolism [14]: metabolite_not_detected
- Drug metabolism [15]: metabolite_not_detected
- Drug metabolism [16]: metabolite_not_detected
- Drug metabolism [17]: metabolite_detected
- Drug metabolism [18]: metabolite_detected
- Drug excretion [19]: metabolite_detected
- Drug excretion [20]: metabolite_detected
- Drug metabolism [21]: metabolite_detected
Compound: CC(C)(N)C(=O)N[C@H](CCCc1ccccc1)C(=O)Nc1cn([C@@](C)(C(=O)N2CCCC2)c2ccc(F)cc2)cn1

- Drug excretion [22]: metabolite_detected
- Drug excretion [2]: metabolite_detected
- Drug excretion [3]: metabolite_detected
Compound: C[C@](C(=O)N1CCCC1)(c1ccc(F)cc1)n1cnc2nc3ncn([C@@](C)(C(=O)N4CCCC4)c4ccc(F)cc4)c3cc21
